Measured values: patent US20220009920A1 (GB005, Inc., priority 2020, published 2022)

Columns and labels:
Assay in all cases: Large panel kinase profiling
Format in all cases: biochemical
Details in all cases: 1 μM test article, 1 mM ATP
MASTL = target: T1, MASTL (Homo sapiens, UniProt Q96GX5)
T1 construct: AssayQuant Technologies, Inc. (assay service)
T1 sequence (Q96GX5 1-879): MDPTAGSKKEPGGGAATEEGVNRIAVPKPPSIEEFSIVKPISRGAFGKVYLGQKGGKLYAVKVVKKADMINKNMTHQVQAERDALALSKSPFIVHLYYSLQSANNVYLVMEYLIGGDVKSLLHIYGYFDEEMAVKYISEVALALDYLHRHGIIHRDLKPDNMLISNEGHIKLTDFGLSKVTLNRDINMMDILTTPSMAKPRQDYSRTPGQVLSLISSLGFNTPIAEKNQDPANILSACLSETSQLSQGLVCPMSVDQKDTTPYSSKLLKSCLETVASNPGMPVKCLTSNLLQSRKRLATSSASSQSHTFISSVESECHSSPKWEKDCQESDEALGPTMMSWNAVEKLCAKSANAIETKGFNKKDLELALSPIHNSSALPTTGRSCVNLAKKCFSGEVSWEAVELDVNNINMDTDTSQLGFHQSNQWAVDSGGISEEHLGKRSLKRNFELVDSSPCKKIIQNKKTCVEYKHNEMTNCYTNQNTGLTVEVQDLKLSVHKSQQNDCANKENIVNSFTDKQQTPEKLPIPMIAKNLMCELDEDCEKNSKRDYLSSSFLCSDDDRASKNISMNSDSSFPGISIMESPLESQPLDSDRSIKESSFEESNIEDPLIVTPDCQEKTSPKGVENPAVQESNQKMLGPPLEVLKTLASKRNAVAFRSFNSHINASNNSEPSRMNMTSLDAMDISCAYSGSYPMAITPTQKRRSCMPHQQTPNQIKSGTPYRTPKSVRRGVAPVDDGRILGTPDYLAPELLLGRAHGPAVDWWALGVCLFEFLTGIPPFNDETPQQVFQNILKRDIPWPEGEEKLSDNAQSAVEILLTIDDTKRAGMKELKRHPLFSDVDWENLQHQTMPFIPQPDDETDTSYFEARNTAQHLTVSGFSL
Summary of the method: (§1)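 Kinase activity was followed with the PhosphoSens CSox-Sensor platform, testing compound at 1 μM in the presence of 1 mM ATP. Reactions ran at 30° C. and fluorescence (Ex 360 nm/Em 485 nm) was read kinetically every 1 min.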

MAPK3/ERK1 = target: T2, MAPK3/ERK1 (Homo sapiens, UniProt P27361)
T2 construct: AssayQuant Technologies, Inc. (service provider)
T2 sequence (P27361 whole entry): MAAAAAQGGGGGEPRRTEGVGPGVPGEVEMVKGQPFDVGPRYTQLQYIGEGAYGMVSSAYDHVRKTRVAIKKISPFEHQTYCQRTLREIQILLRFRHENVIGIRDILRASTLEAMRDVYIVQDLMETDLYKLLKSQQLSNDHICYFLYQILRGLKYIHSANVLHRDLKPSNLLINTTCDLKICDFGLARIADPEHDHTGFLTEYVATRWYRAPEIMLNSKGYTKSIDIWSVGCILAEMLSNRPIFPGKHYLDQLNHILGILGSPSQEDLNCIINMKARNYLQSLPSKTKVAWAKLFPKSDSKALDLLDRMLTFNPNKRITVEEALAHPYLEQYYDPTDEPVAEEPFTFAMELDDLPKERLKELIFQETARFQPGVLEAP
Summary of the method: as §1

EIF2AK1/HRI = target: T3, EIF2AK1/HRI (Homo sapiens, UniProt Q9BQI3)
T3 construct: AssayQuant Technologies, Inc. (service laboratory)
T3 sequence (Q9BQI3 whole entry): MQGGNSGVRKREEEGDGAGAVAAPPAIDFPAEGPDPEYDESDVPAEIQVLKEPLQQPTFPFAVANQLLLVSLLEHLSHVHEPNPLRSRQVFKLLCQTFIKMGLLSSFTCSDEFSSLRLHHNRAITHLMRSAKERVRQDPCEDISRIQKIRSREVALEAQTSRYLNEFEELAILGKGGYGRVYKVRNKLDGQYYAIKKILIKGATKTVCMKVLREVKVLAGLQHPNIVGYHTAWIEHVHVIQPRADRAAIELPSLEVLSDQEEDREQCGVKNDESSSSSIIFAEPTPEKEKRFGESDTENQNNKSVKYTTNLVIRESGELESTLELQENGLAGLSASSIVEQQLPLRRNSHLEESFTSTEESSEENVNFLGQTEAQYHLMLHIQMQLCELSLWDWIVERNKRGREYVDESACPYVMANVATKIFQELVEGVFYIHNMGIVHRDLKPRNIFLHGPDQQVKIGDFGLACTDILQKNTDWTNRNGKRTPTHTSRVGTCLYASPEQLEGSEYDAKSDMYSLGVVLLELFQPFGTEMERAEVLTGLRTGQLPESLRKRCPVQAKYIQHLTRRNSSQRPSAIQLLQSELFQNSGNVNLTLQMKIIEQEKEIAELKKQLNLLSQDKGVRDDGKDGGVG
Summary of the method: as §1

EPHA5 = EPHA5 (Homo sapiens, UniProt P54756)
Sequence of EPHA5 (P54756 25-1037, species assumed): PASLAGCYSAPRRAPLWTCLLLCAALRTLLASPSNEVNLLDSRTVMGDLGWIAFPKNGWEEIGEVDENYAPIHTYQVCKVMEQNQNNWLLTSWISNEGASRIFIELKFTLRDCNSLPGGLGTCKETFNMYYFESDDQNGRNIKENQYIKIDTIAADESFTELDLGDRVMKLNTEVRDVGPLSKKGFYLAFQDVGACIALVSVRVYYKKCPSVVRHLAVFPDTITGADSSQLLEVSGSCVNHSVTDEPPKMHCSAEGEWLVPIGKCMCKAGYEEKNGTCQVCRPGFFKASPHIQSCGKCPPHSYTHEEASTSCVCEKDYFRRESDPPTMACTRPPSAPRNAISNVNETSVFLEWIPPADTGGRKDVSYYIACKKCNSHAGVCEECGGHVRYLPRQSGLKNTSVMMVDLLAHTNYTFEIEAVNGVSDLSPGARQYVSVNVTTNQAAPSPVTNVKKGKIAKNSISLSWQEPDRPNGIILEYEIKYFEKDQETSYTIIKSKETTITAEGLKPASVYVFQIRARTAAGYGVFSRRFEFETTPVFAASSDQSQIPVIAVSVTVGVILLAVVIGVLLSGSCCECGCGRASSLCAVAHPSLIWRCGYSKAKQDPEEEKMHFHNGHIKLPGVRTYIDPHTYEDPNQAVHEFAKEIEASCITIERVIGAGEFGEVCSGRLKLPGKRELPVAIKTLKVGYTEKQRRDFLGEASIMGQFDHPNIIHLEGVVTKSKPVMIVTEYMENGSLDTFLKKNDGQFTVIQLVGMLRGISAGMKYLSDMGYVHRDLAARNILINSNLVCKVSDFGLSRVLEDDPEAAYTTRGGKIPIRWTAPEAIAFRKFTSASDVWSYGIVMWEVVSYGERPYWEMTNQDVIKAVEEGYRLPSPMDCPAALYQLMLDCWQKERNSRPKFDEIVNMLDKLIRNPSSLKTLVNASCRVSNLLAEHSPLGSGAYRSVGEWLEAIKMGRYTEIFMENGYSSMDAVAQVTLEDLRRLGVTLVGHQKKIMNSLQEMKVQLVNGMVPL
Summary of the method: as §1

PRKACB = PRKACB (Homo sapiens, UniProt P22694)
Summary of the method: as §1

PRKCE/PKCE = target: T4, PRKCE/PKCE (Homo sapiens, UniProt Q02156)
T4 sequence (Q02156 1-737): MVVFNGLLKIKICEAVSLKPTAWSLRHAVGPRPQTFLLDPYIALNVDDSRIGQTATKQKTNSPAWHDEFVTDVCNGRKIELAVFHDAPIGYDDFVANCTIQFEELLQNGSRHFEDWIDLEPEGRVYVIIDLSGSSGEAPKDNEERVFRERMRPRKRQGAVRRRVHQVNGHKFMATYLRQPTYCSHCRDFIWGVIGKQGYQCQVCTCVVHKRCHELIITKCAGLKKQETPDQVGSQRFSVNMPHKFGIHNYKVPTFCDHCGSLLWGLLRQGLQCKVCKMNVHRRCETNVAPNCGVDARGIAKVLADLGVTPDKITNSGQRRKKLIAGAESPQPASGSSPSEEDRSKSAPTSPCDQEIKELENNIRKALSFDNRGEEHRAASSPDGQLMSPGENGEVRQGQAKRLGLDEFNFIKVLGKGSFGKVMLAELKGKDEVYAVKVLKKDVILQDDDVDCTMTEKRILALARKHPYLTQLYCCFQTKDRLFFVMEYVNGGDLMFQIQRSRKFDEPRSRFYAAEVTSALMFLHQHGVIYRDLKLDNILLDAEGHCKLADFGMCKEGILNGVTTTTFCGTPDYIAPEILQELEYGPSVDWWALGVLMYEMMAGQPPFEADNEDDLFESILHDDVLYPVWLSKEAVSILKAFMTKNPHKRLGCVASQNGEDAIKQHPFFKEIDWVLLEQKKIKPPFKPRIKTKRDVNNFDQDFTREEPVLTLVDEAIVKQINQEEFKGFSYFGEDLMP
Summary of the method: as §1

CAMK1A = CAMK1A (Homo sapiens, UniProt Q14012)
Sequence of CAMK1A (Q14012 whole entry): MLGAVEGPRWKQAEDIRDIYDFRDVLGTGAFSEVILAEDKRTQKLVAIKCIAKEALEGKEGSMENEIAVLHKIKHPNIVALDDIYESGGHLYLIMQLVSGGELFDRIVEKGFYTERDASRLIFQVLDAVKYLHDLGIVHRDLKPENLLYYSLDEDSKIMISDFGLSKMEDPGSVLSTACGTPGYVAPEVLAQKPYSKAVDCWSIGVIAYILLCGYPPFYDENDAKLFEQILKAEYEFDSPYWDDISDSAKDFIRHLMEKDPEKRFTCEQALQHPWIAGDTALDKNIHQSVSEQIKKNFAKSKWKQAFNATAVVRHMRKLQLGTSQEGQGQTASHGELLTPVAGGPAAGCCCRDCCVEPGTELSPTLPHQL
Summary of the method: as §1

DYRK4 = target: T5, DYRK4 (Homo sapiens, UniProt Q9NR20)
T5 construct: AssayQuant Technologies, Inc. (service laboratory)
T5 sequence (Q9NR20 1-520): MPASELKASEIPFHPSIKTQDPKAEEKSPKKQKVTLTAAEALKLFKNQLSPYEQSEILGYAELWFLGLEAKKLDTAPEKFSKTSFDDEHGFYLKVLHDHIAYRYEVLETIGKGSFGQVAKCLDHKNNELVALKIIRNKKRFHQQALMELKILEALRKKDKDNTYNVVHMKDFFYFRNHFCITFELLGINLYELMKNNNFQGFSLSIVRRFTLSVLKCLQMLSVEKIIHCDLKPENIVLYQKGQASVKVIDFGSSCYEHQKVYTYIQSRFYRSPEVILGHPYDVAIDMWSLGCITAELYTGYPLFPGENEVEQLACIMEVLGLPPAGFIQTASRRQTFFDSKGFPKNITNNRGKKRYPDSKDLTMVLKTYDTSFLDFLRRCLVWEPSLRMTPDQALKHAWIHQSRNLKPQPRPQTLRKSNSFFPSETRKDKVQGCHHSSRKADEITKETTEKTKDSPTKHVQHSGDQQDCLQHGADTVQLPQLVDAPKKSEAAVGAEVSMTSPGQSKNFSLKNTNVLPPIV
Summary of the method: as §1

NTRK1/TRKA = target: T6, NTRK1/TRKA (Homo sapiens, UniProt P04629)
T6 construct: AssayQuant Technologies, Inc. (assay service)
T6 sequence (P04629 33-796): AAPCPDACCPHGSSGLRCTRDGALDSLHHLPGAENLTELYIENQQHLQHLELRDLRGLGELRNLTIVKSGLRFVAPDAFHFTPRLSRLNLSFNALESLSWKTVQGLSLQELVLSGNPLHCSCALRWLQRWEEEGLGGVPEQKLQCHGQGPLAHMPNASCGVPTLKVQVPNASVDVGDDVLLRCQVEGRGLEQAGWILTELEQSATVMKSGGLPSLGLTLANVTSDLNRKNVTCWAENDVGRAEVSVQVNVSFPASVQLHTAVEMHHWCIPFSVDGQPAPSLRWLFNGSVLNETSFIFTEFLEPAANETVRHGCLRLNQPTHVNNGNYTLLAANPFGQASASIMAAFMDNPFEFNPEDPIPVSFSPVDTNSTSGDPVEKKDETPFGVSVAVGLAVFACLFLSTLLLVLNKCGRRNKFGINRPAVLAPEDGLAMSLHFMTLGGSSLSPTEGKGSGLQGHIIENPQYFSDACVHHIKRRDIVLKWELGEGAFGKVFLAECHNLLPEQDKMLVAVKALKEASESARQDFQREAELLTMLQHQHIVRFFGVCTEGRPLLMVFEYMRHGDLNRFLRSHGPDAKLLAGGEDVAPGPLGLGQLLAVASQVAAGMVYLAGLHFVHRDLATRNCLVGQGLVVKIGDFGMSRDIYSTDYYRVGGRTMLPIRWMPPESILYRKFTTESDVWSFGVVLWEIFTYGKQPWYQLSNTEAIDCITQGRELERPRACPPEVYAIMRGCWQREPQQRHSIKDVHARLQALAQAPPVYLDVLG
Summary of the method: as §1

## C=CC(=O)N1CCCC(c2c(F)cc(C(N)=O)c3[nH]c4c(c23)CCCCC4)C1 (single isomer, unassigned) [Compound 5-6]
MASTL
  inhibition at 1 µM: 2.2%
MAPK3/ERK1
  inhibition at 1 µM: -22.1%
EIF2AK1/HRI
  inhibition at 1 µM: -6.1%
EPHA5
  inhibition at 1 µM: 8.1%
PRKACB
  inhibition at 1 µM: 10.6%
PRKCE/PKCE
  inhibition at 1 µM: -3.2%
CAMK1A
  inhibition at 1 µM: 24.4%
DYRK4
  inhibition at 1 µM: 23.2%
NTRK1/TRKA
  inhibition at 1 µM: -5%

## C=CC(=O)N1CCC[C@@H](c2c(F)cc(C(N)=O)c3[nH]c4c(c23)CC2(CC4)CC2)C1 [Compound 6-2, (S)-5-(1-acryloylpiperidin-3-yl)-6-fluoro-1,2,4,9-tetrahydrospiro[carbazole-3,1′-cyclopropane]-8-carboxamide]
MASTL
  inhibition at 1 µM: -9%
MAPK3/ERK1
  inhibition at 1 µM: 22.7%
EIF2AK1/HRI
  inhibition at 1 µM: -34.9%
EPHA5
  inhibition at 1 µM: 17%
PRKACB
  inhibition at 1 µM: 13.2%
PRKCE/PKCE
  inhibition at 1 µM: 0%
CAMK1A
  inhibition at 1 µM: 34.5%
DYRK4
  inhibition at 1 µM: 15.4%
NTRK1/TRKA
  inhibition at 1 µM: 19.6%

## C=CC(=O)N1CCC[C@@H](c2c(F)cc(C(N)=O)c3[nH]c4c(c23)CCC4)C1 [Compound 10-2, (S)-8-(1-acryloylpiperidin-3-yl)-7-fluoro-1,2,3,4-tetrahydrocyclo-penta[b]indole-5-carboxamide]
MASTL
  inhibition at 1 µM: -10.2%
MAPK3/ERK1
  inhibition at 1 µM: 5.5%
EIF2AK1/HRI
  inhibition at 1 µM: -89.5%
EPHA5
  inhibition at 1 µM: -13.5%
PRKACB
  inhibition at 1 µM: 1.6%
PRKCE/PKCE
  inhibition at 1 µM: -3.5%
CAMK1A
  inhibition at 1 µM: 7.9%
DYRK4
  inhibition at 1 µM: -6.6%
NTRK1/TRKA
  inhibition at 1 µM: 21.6%
